Data taken from the kinase profiling compilation of Christmann-Franck et al. (2016).

Tests used:
Assay in all cases: KINOMEscan competition binding
[1] = biological target: PIK3C2B (human) (UniProt O00750)
[2] = test system: EGFR (human), P00533 [T790M]
[3] = biological target: KDR (human) (UniProt P35968)
[4] = biological target: ACVR2A (human) (UniProt P27037)
[5] = biological target: MYLK (human) (UniProt Q15746)
[6] = biological target: JAK2 JH1 catalytic (human) (UniProt O60674)
[7] = biological target: CAMK2D (human) (UniProt Q13557)
[8] = biological target: CHEK2 (human) (UniProt O96017)
[9] = biological target: PRKACA (human) (UniProt P17612)
[10] = biological target: DDR2 (human) (UniProt Q16832)
[11] = biological target: DAPK3 (human) (UniProt O43293)
Sequence of DAPK3 (human) (O43293 whole entry, looked up): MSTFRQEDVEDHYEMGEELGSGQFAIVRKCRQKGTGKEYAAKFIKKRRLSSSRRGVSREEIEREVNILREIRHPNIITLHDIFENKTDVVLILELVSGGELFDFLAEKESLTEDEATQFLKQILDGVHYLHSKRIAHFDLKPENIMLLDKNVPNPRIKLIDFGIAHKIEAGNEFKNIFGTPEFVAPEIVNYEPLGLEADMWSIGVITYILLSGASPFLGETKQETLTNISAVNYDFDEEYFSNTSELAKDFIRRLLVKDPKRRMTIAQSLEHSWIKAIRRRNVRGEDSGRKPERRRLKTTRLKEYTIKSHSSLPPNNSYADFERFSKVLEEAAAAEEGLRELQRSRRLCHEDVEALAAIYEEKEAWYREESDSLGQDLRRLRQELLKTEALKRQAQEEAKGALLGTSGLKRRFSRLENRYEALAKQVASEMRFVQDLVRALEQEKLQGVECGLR

[12] = biological target: MAPK3 (human) (UniProt P27361)
Sequence of MAPK3 (human) (P27361 whole entry, looked up): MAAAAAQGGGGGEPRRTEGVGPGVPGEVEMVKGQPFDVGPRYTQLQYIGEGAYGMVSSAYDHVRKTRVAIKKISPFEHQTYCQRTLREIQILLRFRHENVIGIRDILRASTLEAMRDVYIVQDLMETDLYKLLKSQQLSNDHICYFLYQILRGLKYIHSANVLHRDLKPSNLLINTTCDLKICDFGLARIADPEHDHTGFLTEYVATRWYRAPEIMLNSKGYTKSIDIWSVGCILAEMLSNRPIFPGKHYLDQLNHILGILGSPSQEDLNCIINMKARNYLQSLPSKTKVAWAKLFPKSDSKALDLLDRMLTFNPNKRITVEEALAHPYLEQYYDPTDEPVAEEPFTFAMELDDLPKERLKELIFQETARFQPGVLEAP

[13] = test system: ABL1 (human), P00519 [M351T]
[14] = biological target: AURKB (human) (UniProt Q96GD4)
Sequence of AURKB (human) (Q96GD4 whole entry, looked up): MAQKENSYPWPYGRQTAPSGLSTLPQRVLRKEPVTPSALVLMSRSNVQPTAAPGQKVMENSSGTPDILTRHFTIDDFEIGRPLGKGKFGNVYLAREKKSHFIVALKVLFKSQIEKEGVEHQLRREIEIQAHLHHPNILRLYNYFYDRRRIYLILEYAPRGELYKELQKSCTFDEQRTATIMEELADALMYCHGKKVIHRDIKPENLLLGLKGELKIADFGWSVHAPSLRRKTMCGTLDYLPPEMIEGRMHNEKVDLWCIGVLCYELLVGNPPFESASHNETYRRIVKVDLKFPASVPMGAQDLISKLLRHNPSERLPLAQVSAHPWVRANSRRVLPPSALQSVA

[15] = biological target: MAP4K3 (human) (UniProt Q8IVH8)
[16] = biological target: PAK6 (human) (UniProt Q9NQU5)
[17] = biological target: TNK2 (human) (UniProt Q07912)
[18] = biological target: MARK1 (human) (UniProt Q9P0L2)
Sequence of MARK1 (human) (Q9P0L2 whole entry, looked up): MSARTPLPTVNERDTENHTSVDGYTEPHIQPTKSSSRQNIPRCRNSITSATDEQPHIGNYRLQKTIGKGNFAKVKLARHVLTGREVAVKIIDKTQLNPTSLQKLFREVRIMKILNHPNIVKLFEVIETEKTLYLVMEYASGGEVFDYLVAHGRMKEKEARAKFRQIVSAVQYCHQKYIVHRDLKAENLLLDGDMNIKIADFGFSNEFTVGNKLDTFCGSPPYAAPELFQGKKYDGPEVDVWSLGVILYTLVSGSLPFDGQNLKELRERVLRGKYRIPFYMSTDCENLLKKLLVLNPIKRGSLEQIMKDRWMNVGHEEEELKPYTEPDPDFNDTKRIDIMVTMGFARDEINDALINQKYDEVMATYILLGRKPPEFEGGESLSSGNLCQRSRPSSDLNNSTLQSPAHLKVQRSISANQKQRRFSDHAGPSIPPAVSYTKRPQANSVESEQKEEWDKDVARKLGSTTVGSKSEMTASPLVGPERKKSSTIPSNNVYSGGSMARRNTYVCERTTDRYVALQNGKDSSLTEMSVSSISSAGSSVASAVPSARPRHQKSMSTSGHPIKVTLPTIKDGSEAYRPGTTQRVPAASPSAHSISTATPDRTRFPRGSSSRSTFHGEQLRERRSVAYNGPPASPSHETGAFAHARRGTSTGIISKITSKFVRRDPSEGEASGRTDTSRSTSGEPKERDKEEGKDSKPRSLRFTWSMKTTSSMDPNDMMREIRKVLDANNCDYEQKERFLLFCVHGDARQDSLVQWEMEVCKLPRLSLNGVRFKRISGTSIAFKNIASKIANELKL

[19] = biological target: RET (human) (UniProt P07949)
[20] = biological target: MAP3K1 (human) (UniProt Q13233)
[21] = biological target: LCK (human) (UniProt P06239)
Sequence of LCK (human) (P06239 whole entry, looked up): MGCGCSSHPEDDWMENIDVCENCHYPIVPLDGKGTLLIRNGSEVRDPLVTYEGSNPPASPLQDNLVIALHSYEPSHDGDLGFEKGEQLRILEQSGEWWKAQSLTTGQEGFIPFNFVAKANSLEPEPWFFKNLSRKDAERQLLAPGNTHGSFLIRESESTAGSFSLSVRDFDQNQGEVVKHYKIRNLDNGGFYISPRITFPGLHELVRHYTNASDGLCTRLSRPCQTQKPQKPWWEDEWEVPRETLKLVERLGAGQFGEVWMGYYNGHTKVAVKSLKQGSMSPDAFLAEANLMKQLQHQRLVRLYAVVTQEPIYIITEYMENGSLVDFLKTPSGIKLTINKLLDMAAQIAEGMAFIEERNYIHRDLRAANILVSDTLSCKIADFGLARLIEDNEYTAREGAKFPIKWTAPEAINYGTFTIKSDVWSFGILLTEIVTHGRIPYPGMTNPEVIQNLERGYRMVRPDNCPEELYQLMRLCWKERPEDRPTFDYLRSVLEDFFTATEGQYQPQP

[22] = biological target: PIP4K2C (human) (UniProt Q8TBX8)
[23] = test system: EGFR (human), P00533 [746-750 del]
[24] = biological target: MAPK6 (human) (UniProt Q16659)
[25] = test system: PIK3CA (human), P42336 [C420R]
Sequence of PIK3CA (human), P42336 [C420R] (P42336 whole entry C420R, looked up): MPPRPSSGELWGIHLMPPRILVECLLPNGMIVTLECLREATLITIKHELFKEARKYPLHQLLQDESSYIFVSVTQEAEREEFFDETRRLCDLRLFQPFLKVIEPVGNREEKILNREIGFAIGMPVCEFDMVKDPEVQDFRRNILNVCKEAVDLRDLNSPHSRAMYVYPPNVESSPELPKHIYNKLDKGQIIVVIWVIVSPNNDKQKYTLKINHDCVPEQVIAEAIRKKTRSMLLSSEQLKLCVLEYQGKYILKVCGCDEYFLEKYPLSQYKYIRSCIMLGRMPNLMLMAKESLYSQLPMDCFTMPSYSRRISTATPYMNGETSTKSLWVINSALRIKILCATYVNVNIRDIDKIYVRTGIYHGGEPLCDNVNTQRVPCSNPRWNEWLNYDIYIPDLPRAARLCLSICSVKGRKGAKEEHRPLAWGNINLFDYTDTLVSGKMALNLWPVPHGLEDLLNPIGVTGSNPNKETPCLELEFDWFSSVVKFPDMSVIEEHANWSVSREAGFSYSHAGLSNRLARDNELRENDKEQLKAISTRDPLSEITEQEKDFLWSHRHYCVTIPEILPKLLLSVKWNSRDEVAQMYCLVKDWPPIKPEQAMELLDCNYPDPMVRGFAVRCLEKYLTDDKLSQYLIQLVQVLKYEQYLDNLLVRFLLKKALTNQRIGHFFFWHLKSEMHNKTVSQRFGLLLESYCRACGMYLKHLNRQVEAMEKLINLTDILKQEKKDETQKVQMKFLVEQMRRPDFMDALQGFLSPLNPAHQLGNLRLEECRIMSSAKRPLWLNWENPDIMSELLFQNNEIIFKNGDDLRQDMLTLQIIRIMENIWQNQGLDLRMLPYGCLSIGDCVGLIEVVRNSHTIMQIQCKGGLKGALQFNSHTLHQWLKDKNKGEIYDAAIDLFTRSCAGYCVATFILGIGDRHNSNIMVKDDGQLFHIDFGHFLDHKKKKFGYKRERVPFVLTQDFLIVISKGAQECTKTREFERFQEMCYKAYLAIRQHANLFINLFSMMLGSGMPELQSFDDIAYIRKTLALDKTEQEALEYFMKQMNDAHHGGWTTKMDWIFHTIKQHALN

[26] = test system: RET (human), P07949 [V804L]
[27] = test system: EGFR (human), P00533 [L861Q]
[28] = biological target: TEK (human) (UniProt Q02763)
[29] = biological target: MAPK11 (human) (UniProt Q15759)
[30] = biological target: MAP3K7 (human) (UniProt O43318)
[31] = biological target: LATS1 (human) (UniProt O95835)
[32] = biological target: EPHB4 (human) (UniProt P54760)
[33] = biological target: KIT (human) (UniProt P10721)
[34] = biological target: MAPK13 (human) (UniProt O15264)
Sequence of MAPK13 (human) (O15264 whole entry, looked up): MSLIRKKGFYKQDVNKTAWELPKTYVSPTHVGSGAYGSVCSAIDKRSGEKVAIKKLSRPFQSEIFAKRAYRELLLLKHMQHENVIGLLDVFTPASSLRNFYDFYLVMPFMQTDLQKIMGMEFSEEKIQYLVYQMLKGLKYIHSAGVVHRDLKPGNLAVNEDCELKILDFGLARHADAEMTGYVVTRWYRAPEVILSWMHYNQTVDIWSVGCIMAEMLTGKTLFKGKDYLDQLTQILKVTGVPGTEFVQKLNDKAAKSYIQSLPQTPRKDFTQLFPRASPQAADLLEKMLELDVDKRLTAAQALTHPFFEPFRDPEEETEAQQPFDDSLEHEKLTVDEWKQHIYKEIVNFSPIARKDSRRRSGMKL

[35] = biological target: FLT3 (human) (UniProt P36888)
[36] = biological target: SGK3 (human) (UniProt Q96BR1)
[37] = biological target: RPS6KA4 KD2 (human) (UniProt O75676)
[38] = test system: FLT3 (human), P36888 [K663Q]
[39] = biological target: PRKAA1 (human) (UniProt Q13131)
Sequence of PRKAA1 (human) (Q13131 whole entry, looked up): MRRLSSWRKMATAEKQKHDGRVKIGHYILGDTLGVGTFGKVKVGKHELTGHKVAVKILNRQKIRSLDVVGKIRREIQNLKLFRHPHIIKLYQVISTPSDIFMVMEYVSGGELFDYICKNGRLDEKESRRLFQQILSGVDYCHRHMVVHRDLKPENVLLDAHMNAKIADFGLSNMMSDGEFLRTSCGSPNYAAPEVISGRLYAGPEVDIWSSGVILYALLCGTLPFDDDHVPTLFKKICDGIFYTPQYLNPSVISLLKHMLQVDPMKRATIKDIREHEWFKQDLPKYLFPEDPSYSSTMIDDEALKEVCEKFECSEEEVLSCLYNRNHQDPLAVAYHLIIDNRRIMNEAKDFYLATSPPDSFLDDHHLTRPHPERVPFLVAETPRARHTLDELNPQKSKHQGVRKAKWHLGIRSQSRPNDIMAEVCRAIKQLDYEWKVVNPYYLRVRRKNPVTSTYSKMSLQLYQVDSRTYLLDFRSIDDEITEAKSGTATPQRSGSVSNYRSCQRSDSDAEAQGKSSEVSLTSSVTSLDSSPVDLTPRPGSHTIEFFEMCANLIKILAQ

[40] = biological target: EIF2AK2 (human) (UniProt P19525)
[41] = biological target: EPHA5 (human) (UniProt P54756)
[42] = biological target: BRAF (human) (UniProt P15056); conditions: compound 1.0 µM

Sequence of ACVR2A (human) (P27037 whole entry, looked up): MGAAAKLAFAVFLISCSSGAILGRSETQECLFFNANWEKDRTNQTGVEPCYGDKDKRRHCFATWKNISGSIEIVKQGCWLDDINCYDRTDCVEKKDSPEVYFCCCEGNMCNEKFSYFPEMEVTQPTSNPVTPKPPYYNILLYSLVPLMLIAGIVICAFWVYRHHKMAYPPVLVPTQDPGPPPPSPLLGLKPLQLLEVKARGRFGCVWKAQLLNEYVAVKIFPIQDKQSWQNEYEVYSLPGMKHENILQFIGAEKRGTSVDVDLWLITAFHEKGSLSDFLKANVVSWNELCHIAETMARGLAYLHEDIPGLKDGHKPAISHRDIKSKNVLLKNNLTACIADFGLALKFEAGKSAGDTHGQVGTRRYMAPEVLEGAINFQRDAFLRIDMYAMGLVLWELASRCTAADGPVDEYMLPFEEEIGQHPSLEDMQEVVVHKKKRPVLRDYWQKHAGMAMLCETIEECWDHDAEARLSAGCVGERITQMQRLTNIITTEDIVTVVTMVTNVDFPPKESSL

In the case of `Cc1ccc(NC(=O)c2ccc(NC(=O)/C=C/CN(C)C)cc2)cc1Nc1nccc(-c2cccnc2)n1`, the kinase still bound, per cent of control ([1]; compound 10.0 µM) is reported as 93%, the kinase still bound, per cent of control ([2]; compound 10.0 µM) is reported as 92% and the kinase still bound, per cent of control ([3]; compound 10.0 µM) is reported as 85%. The kinase still bound, per cent of control ([4]; compound 10.0 µM) was 82%, the kinase still bound, per cent of control ([5]; compound 10.0 µM) was 73% and the kinase still bound, per cent of control ([6]; compound 10.0 µM) was 39%. For the same molecule, the kinase still bound, per cent of control ([7]; compound 10.0 µM) was 100%, the kinase still bound, per cent of control ([8]; compound 10.0 µM) was 94% and the kinase still bound, per cent of control ([9]; compound 10.0 µM) was 100%. It also gave a kinase still bound, per cent of control ([10]; compound 10.0 µM) of 0.9%, a kinase still bound, per cent of control ([11]; compound 10.0 µM) of 75% and a kinase still bound, per cent of control ([12]; compound 10.0 µM) of 100%. For the same molecule, the kinase still bound, per cent of control ([13]; compound 10.0 µM) was 47%, the kinase still bound, per cent of control ([14]; compound 10.0 µM) was 86% and the kinase still bound, per cent of control ([15]; compound 10.0 µM) was 78%. For the same molecule, the kinase still bound, per cent of control ([16]; compound 10.0 µM) was 45%, the kinase still bound, per cent of control ([17]; compound 10.0 µM) was 98% and the kinase still bound, per cent of control ([18]; compound 10.0 µM) was 93%. For the same molecule, the kinase still bound, per cent of control ([19]; compound 10.0 µM) was 99%, the kinase still bound, per cent of control ([20]; compound 10.0 µM) was 100% and the kinase still bound, per cent of control ([21]; compound 10.0 µM) was 54%. The kinase still bound, per cent of control ([22]; compound 10.0 µM) was 2%, the kinase still bound, per cent of control ([23]; compound 10.0 µM) was 61% and the kinase still bound, per cent of control ([24]; compound 10.0 µM) was 85%. The kinase still bound, per cent of control ([25]; compound 10.0 µM) was 100%, the kinase still bound, per cent of control ([26]; compound 10.0 µM) was 85% and the kinase still bound, per cent of control ([27]; compound 10.0 µM) was 45%. It also gave a kinase still bound, per cent of control ([28]; compound 10.0 µM) of 93%, a kinase still bound, per cent of control ([29]; compound 10.0 µM) of 49% and a kinase still bound, per cent of control ([30]; compound 10.0 µM) of 61%. For the same molecule, the kinase still bound, per cent of control ([31]; compound 10.0 µM) was 100%, the kinase still bound, per cent of control ([32]; compound 10.0 µM) was 100% and the Kd [33] was 30 nM. The kinase still bound, per cent of control ([33]; compound 10.0 µM) was 0%, the kinase still bound, per cent of control ([34]; compound 10.0 µM) was 87% and the kinase still bound, per cent of control ([35]; compound 10.0 µM) was 75%. The kinase still bound, per cent of control ([36]; compound 10.0 µM) was 99%, the kinase still bound, per cent of control ([37]; compound 10.0 µM) was 64% and the kinase still bound, per cent of control ([38]; compound 10.0 µM) was 84%. For the same molecule, the kinase still bound, per cent of control ([39]; compound 10.0 µM) was 73%, the kinase still bound, per cent of control ([40]; compound 10.0 µM) was 100% and the kinase still bound, per cent of control ([41]; compound 10.0 µM) was 97%.

In the case of `Cc1cc(NC(=O)c2cccc(NC(=O)/C=C/CN(C)C)c2)ccc1Nc1nccc(-c2cccnc2)n1`, the kinase still bound, per cent of control ([1]; compound 1.0 µM) is reported as 100%, the kinase still bound, per cent of control ([2]; compound 1.0 µM) is reported as 100% and the kinase still bound, per cent of control ([3]; compound 1.0 µM) is reported as 96%. For the same molecule, the kinase still bound, per cent of control ([4]; compound 1.0 µM) was 100%, the kinase still bound, per cent of control ([5]; compound 1.0 µM) was 93% and the kinase still bound, per cent of control ([6]; compound 1.0 µM) was 100%. The kinase still bound, per cent of control ([7]; compound 1.0 µM) was 100%, the kinase still bound, per cent of control ([8]; compound 1.0 µM) was 95% and the kinase still bound, per cent of control ([9]; compound 1.0 µM) was 100%. For the same molecule, the kinase still bound, per cent of control ([10]; compound 1.0 µM) was 89%, the kinase still bound, per cent of control ([11]; compound 1.0 µM) was 100% and the kinase still bound, per cent of control ([12]; compound 1.0 µM) was 100%. For the same molecule, the kinase still bound, per cent of control ([13]; compound 1.0 µM) was 81%, the kinase still bound, per cent of control ([14]; compound 1.0 µM) was 82% and the kinase still bound, per cent of control ([15]; compound 1.0 µM) was 100%. It also gave a kinase still bound, per cent of control ([16]; compound 1.0 µM) of 100%, a kinase still bound, per cent of control ([17]; compound 1.0 µM) of 90% and a kinase still bound, per cent of control ([18]; compound 1.0 µM) of 100%. It also gave a kinase still bound, per cent of control ([19]; compound 1.0 µM) of 100%, a kinase still bound, per cent of control ([20]; compound 1.0 µM) of 100% and a kinase still bound, per cent of control ([21]; compound 1.0 µM) of 100%. It also gave a kinase still bound, per cent of control ([22]; compound 1.0 µM) of 46%, a kinase still bound, per cent of control ([23]; compound 1.0 µM) of 90% and a kinase still bound, per cent of control ([24]; compound 1.0 µM) of 37%. For the same molecule, the kinase still bound, per cent of control ([25]; compound 1.0 µM) was 99%, the kinase still bound, per cent of control ([26]; compound 1.0 µM) was 100% and the kinase still bound, per cent of control [42] was 90%. It also gave a kinase still bound, per cent of control ([27]; compound 1.0 µM) of 100%, a kinase still bound, per cent of control ([28]; compound 1.0 µM) of 76% and a kinase still bound, per cent of control ([29]; compound 1.0 µM) of 20%. For the same molecule, the kinase still bound, per cent of control ([30]; compound 1.0 µM) was 61%, the kinase still bound, per cent of control ([31]; compound 1.0 µM) was 91% and the kinase still bound, per cent of control ([32]; compound 1.0 µM) was 100%. The kinase still bound, per cent of control ([33]; compound 1.0 µM) was 3.5%, the kinase still bound, per cent of control ([34]; compound 1.0 µM) was 100% and the kinase still bound, per cent of control ([35]; compound 1.0 µM) was 77%. The kinase still bound, per cent of control ([36]; compound 1.0 µM) was 48%, the kinase still bound, per cent of control ([37]; compound 1.0 µM) was 74% and the kinase still bound, per cent of control ([38]; compound 1.0 µM) was 75%. It also gave a kinase still bound, per cent of control ([39]; compound 1.0 µM) of 100%, a kinase still bound, per cent of control ([40]; compound 1.0 µM) of 82% and a kinase still bound, per cent of control ([41]; compound 1.0 µM) of 100%.

With `CN(C)C/C=C/C(=O)Nc1cccc(C(=O)Nc2ccc(Nc3nccc(/C(C#N)=C4\Nc5ccccc5S4)n3)cc2)c1` the kinase still bound, per cent of control ([1]; compound 1.0 µM) was 96%, the kinase still bound, per cent of control ([2]; compound 1.0 µM) was 80% and the kinase still bound, per cent of control ([3]; compound 1.0 µM) was 55%. For the same molecule, the kinase still bound, per cent of control ([4]; compound 1.0 µM) was 79%, the kinase still bound, per cent of control ([5]; compound 1.0 µM) was 100% and the kinase still bound, per cent of control ([6]; compound 1.0 µM) was 100%. It also gave a kinase still bound, per cent of control ([7]; compound 1.0 µM) of 100%, a kinase still bound, per cent of control ([8]; compound 1.0 µM) of 100% and a kinase still bound, per cent of control ([9]; compound 1.0 µM) of 88%. The kinase still bound, per cent of control ([10]; compound 1.0 µM) was 100%, the kinase still bound, per cent of control ([11]; compound 1.0 µM) was 100% and the kinase still bound, per cent of control ([12]; compound 1.0 µM) was 100%. For the same molecule, the kinase still bound, per cent of control ([13]; compound 1.0 µM) was 69%, the kinase still bound, per cent of control ([14]; compound 1.0 µM) was 83% and the kinase still bound, per cent of control ([15]; compound 1.0 µM) was 91%. For the same molecule, the kinase still bound, per cent of control ([16]; compound 1.0 µM) was 100%, the kinase still bound, per cent of control ([17]; compound 1.0 µM) was 70% and the kinase still bound, per cent of control ([18]; compound 1.0 µM) was 100%. The kinase still bound, per cent of control ([19]; compound 1.0 µM) was 91%, the kinase still bound, per cent of control ([20]; compound 1.0 µM) was 100% and the kinase still bound, per cent of control ([21]; compound 1.0 µM) was 100%. The kinase still bound, per cent of control ([22]; compound 1.0 µM) was 35%, the kinase still bound, per cent of control ([23]; compound 1.0 µM) was 72% and the kinase still bound, per cent of control ([24]; compound 1.0 µM) was 27%. For the same molecule, the kinase still bound, per cent of control ([25]; compound 1.0 µM) was 100%, the kinase still bound, per cent of control ([26]; compound 1.0 µM) was 100% and the kinase still bound, per cent of control ([27]; compound 1.0 µM) was 81%. For the same molecule, the kinase still bound, per cent of control ([28]; compound 1.0 µM) was 100%, the kinase still bound, per cent of control ([29]; compound 1.0 µM) was 100% and the kinase still bound, per cent of control ([30]; compound 1.0 µM) was 58%. For the same molecule, the kinase still bound, per cent of control ([31]; compound 1.0 µM) was 89%, the kinase still bound, per cent of control ([32]; compound 1.0 µM) was 100% and the kinase still bound, per cent of control ([33]; compound 1.0 µM) was 12%. The kinase still bound, per cent of control ([34]; compound 1.0 µM) was 86%, the kinase still bound, per cent of control ([35]; compound 1.0 µM) was 23% and the kinase still bound, per cent of control ([36]; compound 1.0 µM) was 97%. For the same molecule, the kinase still bound, per cent of control ([37]; compound 1.0 µM) was 100%, the kinase still bound, per cent of control ([38]; compound 1.0 µM) was 37% and the kinase still bound, per cent of control ([39]; compound 1.0 µM) was 100%. It also gave a kinase still bound, per cent of control ([40]; compound 1.0 µM) of 100% and a kinase still bound, per cent of control ([41]; compound 1.0 µM) of 100%.
